# In ChEMBL document CHEMBL5726596, “Pyrazolo pyrimidine derivatives and their use as MALT1 inhibitors” (2017):
# Molecular target: T1, Mucosa-associated lymphoid tissue lymphoma translocation protein 1 (Homo sapiens, UniProt Q9UDY8)
# T1 sequence (Q9UDY8 whole entry): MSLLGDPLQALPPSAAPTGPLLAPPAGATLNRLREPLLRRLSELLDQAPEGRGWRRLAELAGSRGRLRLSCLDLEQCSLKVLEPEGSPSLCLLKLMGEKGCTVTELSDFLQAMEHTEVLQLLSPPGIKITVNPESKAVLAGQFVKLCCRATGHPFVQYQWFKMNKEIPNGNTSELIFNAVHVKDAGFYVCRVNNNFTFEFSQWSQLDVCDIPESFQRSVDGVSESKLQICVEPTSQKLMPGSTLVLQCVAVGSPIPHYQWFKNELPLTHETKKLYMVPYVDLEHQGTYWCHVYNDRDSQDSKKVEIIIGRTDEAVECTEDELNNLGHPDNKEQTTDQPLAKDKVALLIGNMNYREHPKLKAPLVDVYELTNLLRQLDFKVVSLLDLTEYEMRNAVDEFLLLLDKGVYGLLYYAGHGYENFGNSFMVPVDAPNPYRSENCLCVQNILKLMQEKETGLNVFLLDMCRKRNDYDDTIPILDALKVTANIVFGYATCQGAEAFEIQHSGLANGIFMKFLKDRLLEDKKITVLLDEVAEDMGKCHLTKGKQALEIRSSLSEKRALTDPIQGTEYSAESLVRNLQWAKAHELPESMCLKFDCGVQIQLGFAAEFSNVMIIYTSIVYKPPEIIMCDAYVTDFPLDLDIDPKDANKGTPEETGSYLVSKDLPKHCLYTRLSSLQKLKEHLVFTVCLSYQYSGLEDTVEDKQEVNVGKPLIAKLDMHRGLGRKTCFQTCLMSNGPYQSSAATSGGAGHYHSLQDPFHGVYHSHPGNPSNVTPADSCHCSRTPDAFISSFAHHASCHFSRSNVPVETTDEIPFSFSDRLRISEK
# Experiment: The assay buffer consists of 200 mM Tris/HCl at pH 7.5, 0.8 M Na citrate, 100 μM EGTA, 100 μM DTT and 0.05% (w/v) CHAPS. […] Test compounds were dissolved in 100% (v/v) DMSO or a mixture containing 90% (v/v) DMSO and 10% (v/v) H2O at a stock concentration of 100 mM. Serial dilutions of test compounds were prepared using either 100% (v/v) DMSO or a mixture containing 90% (v/v) DMSO and 10% (v/v) H2O.
structure (smiles),measurement,value
CCOc1ncc(NC(=O)Nc2cnc3cc(Cl)nn3c2C(C)C)cc1Cl,IC50,5 nM
